{"source": "patent US6569637B1", "about": "“Diagnostic reagents for renal function disorders and method for analyzing urine samples” (Kikkoman Corporation, priority 1997, dated 2003)", "parameters": "species or system patient", "details": "in vivo", "protocol": "An ATP standard reagent was prepared by dissolving sodium salt of ATP in 25 mM HEPES buffer (pH7.75) at a concentration of 2×10^−6M.\nTwo-hundreds μl of a urine sample obtained from a patient suffering from renal dysfunction who received cisplatin administration was added and reacted with 200 μl of the ATP standard reagent prepared as described above at 37° C. for 30 minutes.\nThe solution was 10-fold diluted with 20 mM phosphate buffer (pH7.5), and 200 μl of the diluted solution was transferred into a test tube for ATP measurement. Then, 100 μl of luciferin-luciferase luminescent reagent which had been prepared by dissolving the freeze-dried luminescent reagent (included in ATP assay kit “CheckLite™” available from Kikkoman Corporation) in a solution for dissolving the reagent (also included in the kit) was added to the solution in the tube. The luminescent level based on the ATP level remaining after the reaction was immediately determined using Lumitester K-210.\nOn the other hand, the luminescent level corresponding to the ATP level in a urine sample before the reaction was determined in the same matter.\nDiagnosis of renal dysfunction by ATP method was performed by calculating the ATP index (residual ATP %) according to the equation below and determining whether the subject is a patient with renal dysfunction S or a healthy individual R according to the following criteria. […]"}
{"smiles": "N.N.[Cl][Pt][Cl]", "note": "[cisplatin]", "values": [{"measurement": "residual ATP % in urine sample (ATP index)", "value": "decreases to the minimum"}]}
